26 compounds from patent US8962671B2, “Amino-substituted 3-heteroaroylamino-propionic acid derivatives and their use as pharmaceuticals” (Sanofi, priority 2011, dated 2015) can be followed below.

The assay addresses T1, Recombinant human cathepsin A (Homo sapiens, UniProt P10619).
T1 construct: Recombinant human cathepsin A (residues 29-480, with a C-terminal 10-His tag); 10-His (C); purchased R&D Systems 1049-SE
T1 sequence (P10619 29-326 limits assumed): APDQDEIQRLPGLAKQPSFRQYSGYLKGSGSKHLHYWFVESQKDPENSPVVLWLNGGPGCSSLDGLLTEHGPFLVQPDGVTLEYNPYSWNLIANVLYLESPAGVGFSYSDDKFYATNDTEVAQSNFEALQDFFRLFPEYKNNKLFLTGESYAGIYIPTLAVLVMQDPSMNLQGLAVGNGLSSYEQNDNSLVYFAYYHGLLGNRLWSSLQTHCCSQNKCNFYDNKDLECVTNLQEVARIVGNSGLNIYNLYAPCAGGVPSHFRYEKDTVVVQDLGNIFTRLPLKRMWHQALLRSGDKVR
T1 sequence (P10619 327-480 limits assumed): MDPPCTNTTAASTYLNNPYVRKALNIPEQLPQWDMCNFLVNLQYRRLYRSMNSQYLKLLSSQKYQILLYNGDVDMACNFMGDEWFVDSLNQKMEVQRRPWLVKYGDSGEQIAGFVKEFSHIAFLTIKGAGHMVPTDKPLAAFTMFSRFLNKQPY
The experiment in a line: Cathepsin A inhibitory activity. The conditions noted are these: activated recombinant human cathepsin A 833 ng/ml, Bodipy FL-labeled bradykinin 2 μM, pH 5.5, 15 min room temperature. Format: biochemical. As to the method:
a) Cathepsin a Inhibitory Activity
Recombinant human cathepsin A (residues 29-480, with a C-terminal 10-His tag; R&D Systems, #1049-SE) was proteolytically activated with recombinant human cathepsin L (R&D Systems, #952-CY). Briefly, cathepsin A was incubated at 10 μg/ml with cathepsin L at 1 μg/ml in activation buffer (25 mM 2-(morpholin-4-yl)-ethanesulfonic acid (MES), pH 6.0, containing 5 mM dithiothreitol (DTT)) for 15 min at 37° C. Cathepsin L activity was then stopped by the addition of the cysteine protease inhibitor E-64 (N-(trans-epoxysuccinyl)-L-leucine-4-guanidinobutylamide; Sigma-Aldrich, #E3132; dissolved in activation buffer/DMSO) to a final concentration of 10 μM.
The activated cathepsin A was diluted in assay buffer (25 mM MES, pH 5.5, containing 5 mM DTT) and mixed with the test compound (dissolved in assay buffer containing (v/v) 3% DMSO) or, in the control experiments, with the vehicle in a multiple assay plate. After incubation for 15 min at room temperature, as substrate then bradykinin carrying an N-Terminal®Bodipy FL (4,4-difluoro-5,7-dimethyl-4-bora-3a,4a-diaza-s-indacene-3-propionyl) label (JPT Peptide Technologies GmbH; dissolved in assay buffer) was added to the mixture. The final concentration of cathepsin A was 833 ng/ml and the final concentration of labeled bradykinin 2 μM. After incubation for 15 min at room temperature the reaction was stopped by the addition of stop buffer (130 mM 2-(4-(2-hydroxy-ethyl)-piperazin-1-yl)-ethanesulfonic acid, pH 7.4, containing (v/v) 0.013%®Triton X-100, 0.13% Coating Reagent 3 (Caliper Life Sciences), 6.5% DMSO and 20 μM ebelactone B (Sigma, #E0886)).
Uncleaved substrate and product were then separated by a microfluidic capillary electrophoresis on a LabChip® 3000 Drug Discovery System (12-Sipper-Chip; Caliper Life Sciences) and quantified by determination of the respective peak areas. Substrate turnover was calculated by dividing product peak area by the sum of substrate and product peak areas, and the enzyme activity and the inhibitory effect of the test compound thus quantified. From the percentage of inhibition of cathepsin A activity observed with the test compound at several concentrations, the inhibitory concentration IC50, i.e. the concentration which effects 50% inhibition of enzyme activity was, calculated.

Structures are written as SMILES. pIC50: −log10 of the molar value.

Broadly, the pIC50 is the IC50 on a negative log10 scale, so that one unit is a factor of ten. On to `Cc1ccccc1[C@H](CC(=O)O)NC(=O)c1cc(NC(=O)c2ccccc2)n(-c2ccccc2)n1` [Example 66, (S)-3-[(5-Benzoylamino-1-phenyl-1H-pyrazole-3-carbonyl)-amino]-3-o-tolyl-propionic acid], for which the pIC50 is 7.52.
As to `Nc1cc(C(=O)NC(CC(=O)O)c2cc(Cl)ccc2Cl)nn1-c1ccccc1F` (centres unmarked) [Example 9, 3-{[5-Amino-1-(2-fluoro-phenyl)-1H-pyrazole-3-carbonyl]-amino}-3-(2,5-dichloro-phenyl)-propionic acid], the pIC50 is 6.70.
For `CC(C)(C)C(=O)Nc1cc(C(=O)N[C@@H](CC(=O)O)c2ccc(Cl)cc2Cl)nn1-c1ccccc1` [Example 53, (S)-3-(2,4-Dichloro-phenyl)-3-{[5-(2,2-dimethyl-propionylamino)-1-phenyl-1H-pyrazole-3-carbonyl]-amino}-propionic acid], the pIC50 is 7.57.
For `Cc1ccccc1[C@H](CC(=O)O)NC(=O)c1cc(NCC(O)C(C)(C)C)n(-c2ccccc2)n1` (stereo partly drawn) [Example 57, (S)-3-{[5-(2-Hydroxy-3,3-dimethyl-butylamino)-1-phenyl-1H-pyrazole-3-carbonyl]-amino}-3-o-tolyl-propionic acid] the value was 7.92; for `CC(C)(C)C(=O)Nc1cc(C(=O)N[C@@H](CC(=O)O)c2ccccc2Cl)nn1-c1ccccc1` [Example 54, (S)-3-(2-Chloro-phenyl)-3-{[5-(2,2-dimethyl-propionylamino)-1-phenyl-1H-pyrazole-3-carbonyl]-amino}-propionic acid], 7.50.
As to `O=C(O)C[C@H](NC(=O)c1cc(NC(=O)c2ccccc2)n(-c2ccccc2)n1)c1ccc(F)cc1` [Example 78, (S)-3-[(5-Benzoylamino-1-phenyl-1H-pyrazole-3-carbonyl)-amino]-3-(4-fluoro-phenyl)-propionic acid], the negative-log IC50 (pIC50) is 7.47.
For `Cc1ccccc1[C@H](CC(=O)O)NC(=O)c1cc(Nc2ccccn2)n(-c2ccccc2)n1` [Example 19, (S)-3-{[1-Phenyl-5-(pyridin-2-ylamino)-1H-pyrazole-3-carbonyl]-amino}-3-o-tolyl-propionic acid], the pIC50 is 7.30.
With `Cc1ccccc1[C@H](CC(=O)O)NC(=O)c1cc(N(CC2CC2)CC2CC2)n(-c2ccccc2)n1` [Example 51, (S)-3-{[5-(Bis-cyclopropylmethyl-amino)-1-phenyl-1H-pyrazole-3-carbonyl]-amino}-3-o-tolyl-propionic acid] the figure was 6.28; with `Cc1ccccc1[C@H](CC(=O)O)NC(=O)c1cc(N2CCCCC2=O)n(-c2ccccc2F)n1` [Example 18, (S)-3-{[1-(2-Fluoro-phenyl)-5-(2-oxo-piperidin-1-yl)-1H-pyrazole-3-carbonyl]-amino}-3-o-tolyl-propionic acid], 7.34.
Consider `Cc1ccccc1[C@H](CC(=O)O)NC(=O)c1nn(-c2ccccc2F)c(N)c1C#N` [Example 5, (S)-3-{[5-Amino-4-cyano-1-(2-fluoro-phenyl)-1H-pyrazole-3-carbonyl]-amino}-3-o-tolyl-propionic acid], for which the negative-log IC50 (pIC50) is 7.73.
`Nc1cc(C(=O)NC(CC(=O)O)c2ccc(-c3ccc(F)cc3)cc2)nn1-c1ccccc1F` (centres unmarked) [Example 4, 3-{[5-Amino-1-(2-fluoro-phenyl)-1H-pyrazole-3-carbonyl]-amino}-3-(4′-fluoro-biphenyl-4-yl)-propionic acid]: the negative-log IC50 (pIC50) is 7.73.
With `N#Cc1cccc([C@H](CC(=O)O)NC(=O)c2cc3[nH]c4ccccc4n3n2)c1` [Example 37, (S)-3-[(4H-Benzo[4,5]imidazo[1,2-b]pyrazole-2-carbonyl)-amino]-3-(3-cyano-phenyl)-propionic acid] the figure was 5.45.
Regarding `O=C(O)CC1(NC(=O)c2cc(NC(=O)c3ccccc3)n(-c3ccccc3)n2)CCCC1` [Example 77, {1-[(5-Benzoylamino-1-phenyl-1H-pyrazole-3-carbonyl)-amino]-cyclopentyl}-acetic acid], the negative-log IC50 (pIC50) was 7.13.
In the case of `O=C(O)CC(NC(=O)c1cc(NC(=O)c2ccccc2)n(-c2ccccc2)n1)C1CCCCC1` (centres unmarked) [Example 74, 3-[(5-Benzoylamino-1-phenyl-1H-pyrazole-3-carbonyl)-amino]-3-cyclohexyl-propionic acid], the pIC50 was 7.10.
For the compound `O=C(O)C[C@H](NC(=O)c1cc2[nH]c3ccccc3n2n1)c1ccccc1Cl` [Example 49, (S)-3-[(4H-Benzo[4,5]imidazo[1,2-b]pyrazole-2-carbonyl)-amino]-3-(2-chloro-phenyl)-propionic acid], the pIC50 is 6.41.
With `Cc1ccccc1[C@H](CC(=O)O)NC(=O)c1cc2[nH]c3ccccc3n2n1` [Example 38, (S)-3-[(4H-Benzo[4,5]imidazo[1,2-b]pyrazole-2-carbonyl)-amino]-3-o-tolyl-propionic acid] the figure was 6.66.
For `Nc1cc(C(=O)NC(CC(=O)O)c2ccc(-c3ccc(F)cc3)cc2)nn1-c1ccccc1` (centres unmarked) [Example 2, 3-[(5-Amino-1-phenyl-1H-pyrazole-3-carbonyl)-amino]-3-(4′-fluoro-biphenyl-4-yl)-propionic acid] the value was 7.27; for `Cc1ccccc1[C@H](CC(=O)O)NC(=O)c1cc(NC[C@H](O)C(C)(C)C)n(-c2ccccc2)n1` (single isomer, unassigned) [Example 59], 7.60.
For `Cc1ccccc1[C@H](CC(=O)O)NC(=O)c1cc(N(C)C(=O)C(C)(C)C)n(-c2ccccc2)n1` [Example 55, (S)-3-({5-[(2,2-Dimethyl-propionyl)-methyl-amino]-1-phenyl-1H-pyrazole-3-carbonyl}-amino)-3-o-tolyl-propionic acid] the value was 7.76.
Turning to `Cc1ccc(C(=O)Nc2cc(C(=O)N[C@@H](CC(=O)O)c3ccc(Cl)cc3Cl)nn2-c2ccccc2)o1` [Example 62, (S)-3-(2,4-Dichloro-phenyl)-3-({5-[(5-methyl-furan-2-carbonyl)-amino]-1-phenyl-1H-pyrazole-3-carbonyl}-amino)-propionic acid], the pIC50 is 6.76.
In the case of `Cc1ccccc1[C@H](CC(=O)O)NC(=O)c1cc(NC(=O)CO[C@@H]2C[C@H](C)CC[C@H]2C(C)C)n(-c2ccccc2)n1` [Example 68, (S)-3-({5-[2-((1R,2S,5R)-2-Isopropyl-5-methyl-cyclohexyloxy)-acetylamino]-1-phenyl-1H-pyrazole-3-carbonyl}-amino)-3-o-tolyl-propionic acid], the negative-log IC50 (pIC50) was 5.75.
For `Cc1ccccc1[C@H](CC(=O)O)NC(=O)c1cc(N2CCCS2(=O)=O)n(-c2ccccc2)n1` [Example 16, (S)-3-{[5-(1,1-Dioxo-1lambda6-isothiazolidin-2-yl)-1-phenyl-1H-pyrazole-3-carbonyl]-amino}-3-o-tolyl-propionic acid] the value was 7.75; for `O=C(O)CC(Cc1ccccc1)NC(=O)c1cc(NC(=O)c2ccccc2)n(-c2ccccc2)n1` (centres unmarked) [Example 75, 3-[(5-Benzoylamino-1-phenyl-1H-pyrazole-3-carbonyl)-amino]-4-phenyl-butyric acid], 6.43.
On to `Cc1ccccc1[C@H](CC(=O)O)NC(=O)c1cc(NCC(=O)C(C)(C)C)n(-c2ccccc2)n1` [Example 56, (S)-3-{[5-(3,3-Dimethyl-2-oxo-butylamino)-1-phenyl-1H-pyrazole-3-carbonyl]-amino}-3-o-tolyl-propionic acid], for which the negative logarithm of the IC50 (pIC50) is 7.79.
For `CN(C(=O)c1ccccc1)c1cc(C(=O)N[C@@H](CC(=O)O)c2cccc(Cl)c2)nn1-c1ccccc1` [Example 71, (S)-3-{[5-(Benzoyl-methyl-amino)-1-phenyl-1H-pyrazole-3-carbonyl]-amino}-3-(3-chloro-phenyl)-propionic acid] the value was 7.25.
As to `O=C(O)C[C@H](NC(=O)c1cc(NC(=O)c2ccccc2)n(-c2ccccc2)n1)c1ccccc1C(F)(F)F` [Example 84, (S)-3-[(5-Benzoylamino-1-phenyl-1H-pyrazole-3-carbonyl)-amino]-3-(2-trifluoromethyl-phenyl)-propionic acid], the negative logarithm of the IC50 (pIC50) was 6.41.
